Earlier results, collected in the CATMoS acute toxicity set (Mansouri et al. 2021).
Values joined by “and” are separate entries in the source; they are usually repeats but may differ in a detail not shown here. Equal entries are not always repeated.

Experiment: rat acute oral toxicity
Conditions: in vivo
For `COC1C(O)CC(=O)OC(C)CC=CC=CC(OC2CCC(N(C)C)C(C)O2)C(C)CC(CC=O)C1OC1OC(C)C(OC2CC(C)(O)C(O)C(C)O2)C(N(C)C)C1O` (stereo not given), the LD50 is given as 4650 mg/kg. For `ClC(Cl)=C1C(Cl)(Cl)C(Cl)=C(Cl)C1(Cl)Cl`, the LD50 is listed as 3700 mg/kg. For `CC(=O)Nc1ccc2nc(C(F)(F)F)[nH]c2c1`, the LD50 is listed as 23.8 mg/kg. In the case of `CCCCCCCCCCCCCCCCCOCC`, the LD50 is listed as 1260 mg/kg. For `CC(C)(N)Cc1ccccc1Cl`, the LD50 is given as 332 mg/kg. In the case of `COc1ccc(-c2ccccc2)cc1CN1CCCC1`, the LD50 is given as 28 mg/kg. In the case of `COc1c(C(=O)CCC(=O)O)ccc2c(C)c(C)oc12`, the LD50 is listed as 3000 mg/kg. In the case of `CO[C@H]1CC[C@H](O[C@@H]2C[C@]3(C[C@H](O)[C@@H](C)[C@@H]([C@@H](C)C=C(C)C(=O)[C@H](C)C[C@H](C)C(=O)O)O3)O[C@]2(C)[C@H]2CC[C@@H](C)C3(O[C@@H]([C@@H]4O[C@](O)(CO)[C@@H](C)C[C@H]4C)C[C@@H]3C)O2)O[C@@H]1C` (stereo not given in full), the LD50 is given as 7.5 mg/kg. For `NCCCNCCNCCCN`, the LD50 is given as 1200 mg/kg. For `N#CC(C#N)=C1SCS1`, the LD50 is given as 75 mg/kg. For `CCC(C)c1cc([N+](=O)[O-])cc([N+](=O)[O-])c1OC(C)=O` (stereo not given), the LD50 is given as 60 mg/kg. For `CCCN(CCC)c1c([N+](=O)[O-])cc(C)cc1[N+](=O)[O-]`, the LD50 is listed as 3600 mg/kg. In the case of `CCCCCCCC(=O)Oc1c(I)cc(C#N)cc1I`, the LD50 is given as 190 mg/kg. For `CC(C)(C)NC[C@H](O)COc1cccc2c1CCCC2=O`, the LD50 is given as 700 mg/kg. In the case of `CCOC(=O)c1noc(C)c1C(=O)c1ccccc1`, the LD50 is given as 1000 mg/kg. In the case of `CCCCCCCCOP(OCC(CC)CCCC)Oc1ccccc1` (stereo not given), the LD50 is listed as 7000 mg/kg. In the case of `FC(F)=C(F)c1ccccc1`, the LD50 is listed as 2500 mg/kg. In the case of `COc1cc(NS(=O)(=O)c2ccc(N)cc2)ncn1`, the LD50 is given as 5620 mg/kg. In the case of `CCCCCCCCCCCOC(=O)Cc1ccc(N(CCCl)CCCl)cc1`, the LD50 is given as 50 mg/kg. In the case of `O=C(O)c1ccc(Cl)c([N+](=O)[O-])c1`, the LD50 is given as 3150 mg/kg. For `Cc1ccc(B2OCC3(CO2)COB(c2ccc(C)cc2)OC3)cc1`, the LD50 is given as 1130 mg/kg. For `N#CCCC1(CCC#N)c2ccccc2-c2ccccc21`, the LD50 is given as 2180 mg/kg. For `C[N+](C)(C)CCOP(=O)(O)OP(=O)(O)OC[C@H]1O[C@@H](n2ccc(N)nc2=O)[C@H](O)[C@@H]1O`, the LD50 is listed as 18500 mg/kg. In the case of `CCOC(=O)C=C(C)C`, the LD50 is given as 11600 mg/kg. In the case of `ClCCN(Cc1ccccc1)Cc1ccccc1`, the LD50 is given as 2400 mg/kg. For `C[N+]1(C)CCc2cc(Cl)ccc21`, the LD50 is listed as 447 mg/kg. In the case of `Cc1ccc2[nH]c(C(F)(F)F)nc2c1Br`, the LD50 is listed as 64 mg/kg. For `Cc1cccc(OCCC(C)C)c1N(C)C(=O)CCl`, the LD50 is listed as 3300 mg/kg. For `Clc1cccc(N2CCNCC2)c1`, the LD50 is given as 142 mg/kg. In the case of `CCC(=O)C(C)=O`, the LD50 is given as 3000 mg/kg. In the case of `COc1ccccc1C=Nc1ccccc1C(=O)O`, the LD50 is given as 1500 mg/kg. For `NCCNCCO`, the LD50 is listed as 3000 mg/kg. For `CCC1(CC)C(=O)C=CN(CN2CCNCC2)C1=O`, the LD50 is listed as 1340 mg/kg. In the case of `N#CC(Cl)CS(=O)(=O)c1ccccc1` (stereo not given), the LD50 is given as 540 mg/kg. In the case of `O=C(NN1CCCC1)NS(=O)(=O)c1ccc(Cl)cc1`, the LD50 is given as 4100 mg/kg. In the case of `CCSCC`, the LD50 is given as 3420 mg/kg. In the case of `N=C(N)Nc1ccc(C(=O)Oc2ccc3cc(C(=N)N)ccc3c2)cc1`, the LD50 is listed as 3050 mg/kg. In the case of `CC(C)(COCC1CO1)COCC1CO1` (stereo not given), the LD50 is listed as 4500 mg/kg. In the case of `CCOP(=S)(OCC)SCn1nc(Cl)c(Cl)cc1=O`, the LD50 is listed as 1880 mg/kg. In the case of `CN(C)CC#N`, the LD50 is listed as 50 mg/kg. In the case of `CC(C(=O)O)c1ccc(C(=O)c2ccccc2)s1` (stereo not given), the LD50 is given as 181 mg/kg. In the case of `CCN(CCC#N)c1ccccc1`, the LD50 is given as 4840 mg/kg. In the case of `CN(C)C(=S)SCN1CCOCC1`, the LD50 is given as 1500 mg/kg. In the case of `O=C(Cc1cccs1)N[C@@H]1C(=O)N2C(C(=O)[O-])=C(C[n+]3ccccc3)CS[C@H]12`, the LD50 is given as 2500 mg/kg. In the case of `CCOc1ccccc1N1CCN(CCCc2ccc3c(c2)CCC(=O)N3)CC1`, the LD50 is given as 500 mg/kg. For `O=C1C(Cl)=C(Cl)C(=O)C1=C(Cl)Cl`, the LD50 is listed as 2300 mg/kg. In the case of `NS(=O)(=O)c1ccc2nc(C(F)(F)F)[nH]c2c1`, the LD50 is listed as 21 mg/kg. For `CC(C)(C)NC(=O)[C@H]1CC[C@H]2[C@@H]3CC[C@H]4NC(=O)C=C[C@]4(C)[C@H]3CC[C@]12C`, the LD50 is listed as 418 mg/kg. In the case of `CCCCCCc1ccc(C(CBr)OCC(CC)CCCC)cc1` (stereo not given), the LD50 is given as 250 mg/kg. For `Cc1c(Cl)ccc2[nH]c(C(F)(F)F)nc12`, the LD50 is given as 22 mg/kg. For `COCCC#N`, the LD50 is listed as 4390 mg/kg. For `O=NN1CCc2ccccc21`, the LD50 is given as 320 mg/kg. In the case of `CCC(C)c1cc([N+](=O)[O-])cc([N+](=O)[O-])c1OC(=O)OC(C)C` (stereo not given), the LD50 is listed as 59 mg/kg. In the case of `CCCSP(=O)(OCC)Oc1ccc(Cl)cc1Cl` (stereo not given), the LD50 is given as 320 mg/kg. For `Cc1cc(N)ccc1N`, the LD50 is given as 98 mg/kg and 102 mg/kg. For `Cc1c(O)cccc1O`, the LD50 is listed as 200 mg/kg. For `CCOC(=O)COC(=O)c1cc(Oc2ccc(C(F)(F)F)cc2Cl)ccc1[N+](=O)[O-]`, the LD50 is given as 1480 mg/kg. For `COc1ccc(N=NN(C)C)cc1`, the LD50 is given as 347 mg/kg. In the case of `COc1cc(C(=O)N2CCN(C(=O)c3cc(OC)c(OC)c(OC)c3)CC2)cc(OC)c1OC`, the LD50 is given as 1000 mg/kg. For `CCCCCCCCc1ccccc1O`, the LD50 is given as 2800 mg/kg. In the case of `CCCCCCCC/C=C\CCCCCCCC[N+](C)(C)CC`, the LD50 is given as 500 mg/kg. For `CCS(=O)(=O)CCn1c([N+](=O)[O-])cnc1C`, the LD50 is listed as 2710 mg/kg. In the case of `CCS(=O)(=O)Nc1c(C)cc(OC(=O)NC)cc1C`, the LD50 is listed as 780 mg/kg. For `COc1cc2nc(N3CCN(C(=O)OCC4CC4)CC3)nc(N)c2cc1OC`, the LD50 is listed as 1150 mg/kg. For `CCOP(=S)(OCC)SCSC(C)C`, the LD50 is listed as 1.1 mg/kg. For `C[N+](C)(C)Cc1ccccc1`, the LD50 is listed as 25 mg/kg. In the case of `O=S(=O)(O)C(F)(F)C(F)(F)C(F)(F)C(F)(F)C(F)(F)C(F)(F)C(F)(F)C(F)(F)F`, the LD50 is given as 251 mg/kg and 154 mg/kg. In the case of `S=C1SSC2=NCCN12`, the LD50 is given as 380 mg/kg. In the case of `CCOCCC(OCC)OCC`, the LD50 is given as 1600 mg/kg. For `CCC(C)(O)c1ccccc1` (stereo not given), the LD50 is given as 1400 mg/kg. In the case of `Cc1ccccc1C#N`, the LD50 is listed as 3200 mg/kg. In the case of `ClC1=C(Cl)C2(Cl)C3CCC4C(CCC3C1(Cl)C2(Cl)Cl)C1(Cl)C(Cl)=C(Cl)C4(Cl)C1(Cl)Cl` (stereo not given), the LD50 is given as 25000 mg/kg. For `Fc1ccc2nc(C(F)(F)F)[nH]c2c1`, the LD50 is listed as 16.6 mg/kg. For `CCOc1cc(C=O)ccc1O`, the LD50 is listed as 1590 mg/kg. In the case of `CC(Cl)COP(=O)(OCC(C)Cl)Oc1ccc([N+](=O)[O-])cc1` (stereo not given), the LD50 is listed as 173 mg/kg. For `CCC(CC)COCCC(=O)O`, the LD50 is given as 3730 mg/kg. In the case of `COP(=S)(OC)OC1CCCCC1`, the LD50 is listed as 2900 mg/kg. In the case of `CCN(CC)CCOc1ccccc1C(=O)CCc1ccccc1`, the LD50 is given as 716 mg/kg. For `CCCCOCCOCC`, the LD50 is given as 2830 mg/kg. For `Cc1cc(=S)c(N)n[nH]1`, the LD50 is listed as 1980 mg/kg. For `O=C(O)C(F)(F)C(F)(F)C(F)(F)C(F)(F)C(F)(F)C(F)(F)C(F)(F)C(F)(F)C(F)(F)C(F)F`, the LD50 is listed as 518 mg/kg. For `CCOP(=O)(OCC)SCSc1cc(Cl)ccc1Cl`, the LD50 is listed as 38 mg/kg. For `OCC1CC2CC1C1CCC(CO)C21` (stereo not given), the LD50 is listed as 2250 mg/kg. For `O=c1nn[nH]c2ccccc12`, the LD50 is listed as 595 mg/kg. For `CCOC(=O)CCCCCCCCC(C)c1ccc(I)cc1` (stereo not given), the LD50 is given as 2100 mg/kg. In the case of `Cc1cc(O)c(C(C)(C)C)cc1Sc1cc(C(C)(C)C)c(O)cc1C`, the LD50 is given as 2340 mg/kg. For `Clc1cccc2c1Oc1c(Cl)c(Cl)c(Cl)c(Cl)c1O2`, the LD50 is given as 0.206 mg/kg. In the case of `CP(C)(=O)CN1C(=O)CN=C(c2ccccc2)c2cc(Cl)ccc21`, the LD50 is listed as 3110 mg/kg. In the case of `CC(Cc1ccccc1)OC(N)=O` (stereo not given), the LD50 is given as 1100 mg/kg. For `CCOC(=O)C(=O)NP(=O)(OC)SC` (stereo not given), the LD50 is listed as 501 mg/kg. For `Nc1ccc2nc(C(F)(F)F)[nH]c2c1`, the LD50 is listed as 67 mg/kg. In the case of `ClC1=C(Cl)C2(Cl)C3CCCCC3C1(Cl)C2(Cl)Cl` (stereo not given), the LD50 is given as 100 mg/kg. For `CC(O)COC(=O)CBr` (stereo not given), the LD50 is given as 664 mg/kg. For `COC1=CC(=O)OC(C=CC2=CCCC=C2)C1` (stereo not given), the LD50 is listed as 16000 mg/kg. In the case of `O=C1C=CC(=O)N1c1ccc(Cl)cc1`, the LD50 is given as 440 mg/kg. In the case of `CCN(CC)c1cccc(S(=O)(=O)O)c1`, the LD50 is listed as 7470 mg/kg. In the case of `S=c1[nH]nc(NCNc2n[nH]c(=S)s2)s1`, the LD50 is listed as 4640 mg/kg. In the case of `C#CC(C)(CCC=C(C)C)OC(C)=O` (stereo not given), the LD50 is given as 9620 mg/kg. In the case of `CC(C)C1NC(=O)c2ccccc2O1` (stereo not given), the LD50 is given as 1850 mg/kg. In the case of `OCCCC(O)CO` (stereo not given), the LD50 is listed as 7800 mg/kg.
